# Source: PubChem BioAssay AID1963422 (Molecular Pharmacology Branch, DTP, NCI, 2024)
# Tested on: 463943-066-T-J2-PDC complex spheroid growth
# Experiment: Anticancer human tumor 463943-066-T-J2-PDC patient-derived colon adenocarcinoma cell line growth inhibition [Asc]
# Settings: for IC50: curve of first compound; for viability, T/C: stronger effect = lower value
# Procedure: Multicellular complex tumor spheroid response to apoptosis pathway targeting inhibitors Alrizomadlin, Pelcitoclax, and Dasminapant in combination with a variety of drugs and investigational agents in selected tumor cell lines
# The MDM2 inhibitor alrizomadlin, the Bcl-2/Bcl-xL inhibitor pelcitoclax, and the IAPs inhibitor dasminapant were evaluated both individually and in combination with standard of care and investigational anticancer small molecules within a complex spheroid model of solid tumors. . Complex spheroids include a stromal component modeled by human endothelial cells (HUVEC) and fibroblasts modeled by human mesenchymal stem cells (MSCs). The concentration ranges selected for each drug and investigational agent were based upon clinically achievable concentrations if the clinical Cmax of the agent was known.
# Compounds. The drugs and investigational agents: alrizomadlin (APG-115; NSC831270), pelcitoclax (APG-1252; NSC835773), dasminapant (APG-1387;NSC834197), TAK-243 (NSC785004), copanlisib (NSC809693), olaparib (NSC753686), talazoparib (NSC767125), cobimetinib (NSC 768068), eltanexor (KPT-8602, NSC 794443), abemaciclib (NSC 768073), sotorasib (NSC818433), adagrasib (NSC 831453), MRTX-1133 (NSC 836407), Iadademestat (ORY1001, NSC 806812), and RMC-4630 (NSC839698), were obtained from the NCI Developmental Therapeutics Program Chemical Repository. The FDA-approved anticancer drug set is available from the Developmental Therapeutics Program at https://dtp.cancer.gov/organization/dscb/obtaining/available plates.htm. […] The stock solutions were prepared in dimethyl sulfoxide (DMSO, Sigma-Aldrich, St. Louis, MO, cat. D2650) at 800-fold the tested concentration and stored at -70 degrees C prior to their use. All drugs and investigational agents were tested over a range starting from a high concentration at or near the clinical Cmax and decreasing in half-log increments. If the clinical Cmax for an agent had not been determined, the highest concentration tested was 10 microM.
# The patient-derived cancer (PDC) cell lines include five colon adenocarcinomas: 186277-243-T-J2-PDC, 616215-338-R-J1-PDC, 439559-082-T-J2-PDC, 463943-066-T-J2-PDC, and 519858-162-T-J1-PDC; three pancreatic carcinomas: 323965-272-R-J2-PDC, 521955-158-R6-J3-PDC, and 521955-158-R2-J5-PDC; two uterine sarcomas: 327498-152-R-J2-PDC and 993429-296-R-J1-PDC; two rhabdomyosarcomas: 755483-174-R-J1-PDC and 772245-204-R-J1-PDC; two soft tissue sarcomas: 126254-015-R-J1-PDC and 494315-158-R-J1-PDC; two malignant fibrous histiocytomas: 317291-083-R-J1-PDC and 596521-263-R-J1-PDC; two breast carcinomas: 171881-019-R-J1-PDC and 885512-296-R-J2-PDC; and one ovarian carcinoma: 6556581-035-R-J-PDC were obtained from the NCI PDMR, (https://pdmr.cancer.gov). The established cell lines HSSY-2 synovial sarcoma (RRID:CVCL 8719), SYO-1 synovial sarcoma (RRID:CVCL_7146), MPNST malignant peripheral neural sheath tumor were obtained from the Sloan Kettering Institute. The following established cell lines were purchased from the American Type Culture Collection (ATCC, Manassas, VA), Sor the received from the NCI repository:, PANC-1 pancreatic carcinoma (CRL-1469, RRID:CVCL_0480), OVCAR-5 ovarian carcinoma (RRID:CVCL_1628), OVCAR-8 ovarian carcinoma (RRID:CVCL_1629), , MCF-7 breast carcinoma (CRL-12584, RRID:CVCL_0031), MDA-MB-231 breast carcinoma (CRL-12532, RRID:CVCL_0062), NCI-H1876 small cell lung carcinoma (CRL-5902, RRID:CVCL_1503), NCI-H510A small cell lung carcinoma (HTB-184, RRID:CVCL_1565), NCI-H1417 (CRL-5869, RRID:CVCL_1469), and NCI-H196 small cell lung carcinoma (CRL-5823, RRID:CVCL_1509). Dr. Peter Houghton (Greehey Children's Cancer Research Institute, University of Texas Health Science Center, San Antonio, TX) provided Rh-18 rhabdomyosarcoma (RRID:CVCL_1659). Pooled donor human umbilical vein endothelial cells (HUVEC, Lonza, cat. CC-2519) and human mesenchymal stem cells (hMSC, Lonza, cat. PT-2501) were purchased from Lonza (Walkersville, MD).
# Cell Culture. […]
# [1] = second compound 0.00949 µM, first compound 0.0316 µM
# [2] = second compound 0.00949 µM, first compound 0.1 µM
# [3] = second compound 0.03 µM, first compound 0.0316 µM
# [4] = second compound 0.03 µM, first compound 0.1 µM
# [5] = second compound 0.0949 µM, first compound 0.0316 µM
# [6] = second compound 0.0949 µM, first compound 0.1 µM
# [7] = second compound 0.3 µM, first compound 0.0316 µM
# [8] = second compound 0.3 µM, first compound 0.1 µM
# [9] = second compound 0.949 µM, first compound 0.0316 µM
# [10] = second compound 0.949 µM, first compound 0.1 µM
# [11] = second compound 3 µM, first compound 0.0316 µM
# [12] = second compound 3 µM, first compound 0.1 µM
# 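Further: compound exposure lasted 7 days.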
# 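Wherever viability, T/C is given: 100% = DMSO vehicle control wells.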
smiles,measurement,setting,value
Cn1ncnc1[C@H]1c2n[nH]c(=O)c3cc(F)cc(c23)N[C@@H]1c1ccc(F)cc1 + CCN1C(C(=O)NC23CCC(C(=O)O)(CC2)CC3)C(c2cccc(Cl)c2F)C2(C(=O)Nc3cc(Cl)ccc32)C12CCCCC2,IC50,second compound 0.00949 µM,> 0.1 µM
same,IC50,second compound 0.03 µM,> 0.1 µM
same,IC50,second compound 0.0949 µM,> 0.1 µM
same,IC50,second compound 0.3 µM,> 0.1 µM
same,IC50,second compound 0.949 µM,> 0.1 µM
same,IC50,second compound 3 µM,> 0.1 µM
same,"viability, T/C","second compound 0.00949 µM, first compound 0.000316 µM",102%
same,"viability, T/C","second compound 0.00949 µM, first compound 0.001 µM",96.2%
same,"viability, T/C","second compound 0.00949 µM, first compound 0.00316 µM",106%
same,"viability, T/C","second compound 0.00949 µM, first compound 0.01 µM",97.2%
same,"viability, T/C",[1],100%
same,"viability, T/C",[2],88.1%
same,"viability, T/C","second compound 0.03 µM, first compound 0.000316 µM",98.7%
same,"viability, T/C","second compound 0.03 µM, first compound 0.001 µM",98.6%
same,"viability, T/C","second compound 0.03 µM, first compound 0.00316 µM",95.7%
same,"viability, T/C","second compound 0.03 µM, first compound 0.01 µM",98.2%
same,"viability, T/C",[3],96.5%
same,"viability, T/C",[4],90.1%
same,"viability, T/C","second compound 0.0949 µM, first compound 0.000316 µM",101%
same,"viability, T/C","second compound 0.0949 µM, first compound 0.001 µM",89.1%
same,"viability, T/C","second compound 0.0949 µM, first compound 0.00316 µM",89.8%
same,"viability, T/C","second compound 0.0949 µM, first compound 0.01 µM",89.6%
same,"viability, T/C",[5],92.8%
same,"viability, T/C",[6],79.1%
same,"viability, T/C","second compound 0.3 µM, first compound 0.000316 µM",85.4%
same,"viability, T/C","second compound 0.3 µM, first compound 0.001 µM",85.3%
same,"viability, T/C","second compound 0.3 µM, first compound 0.00316 µM",85.7%
same,"viability, T/C","second compound 0.3 µM, first compound 0.01 µM",85.6%
same,"viability, T/C",[7],81.5%
same,"viability, T/C",[8],79%
same,"viability, T/C","second compound 0.949 µM, first compound 0.000316 µM",75.4%
same,"viability, T/C","second compound 0.949 µM, first compound 0.001 µM",76.1%
same,"viability, T/C","second compound 0.949 µM, first compound 0.00316 µM",72.5%
same,"viability, T/C","second compound 0.949 µM, first compound 0.01 µM",77.9%
same,"viability, T/C",[9],75.4%
same,"viability, T/C",[10],76.3%
same,"viability, T/C","second compound 3 µM, first compound 0.000316 µM",71.1%
same,"viability, T/C","second compound 3 µM, first compound 0.001 µM",70.2%
same,"viability, T/C","second compound 3 µM, first compound 0.00316 µM",75.3%
same,"viability, T/C","second compound 3 µM, first compound 0.01 µM",67.4%
same,"viability, T/C",[11],73.2%
same,"viability, T/C",[12],74%
O=C(c1cc(Cc2n[nH]c(=O)c3ccccc23)ccc1F)N1CCN(C(=O)C2CC2)CC1 + CCN1C(C(=O)NC23CCC(C(=O)O)(CC2)CC3)C(c2cccc(Cl)c2F)C2(C(=O)Nc3cc(Cl)ccc32)C12CCCCC2,IC50,second compound 0.00949 µM,> 10 µM
same,IC50,second compound 0.03 µM,> 10 µM
same,IC50,second compound 0.0949 µM,> 10 µM
same,IC50,second compound 0.3 µM,> 10 µM
same,IC50,second compound 0.949 µM,> 10 µM
same,IC50,second compound 3 µM,> 10 µM
same,"viability, T/C",[1],99.4%
same,"viability, T/C",[2],102%
same,"viability, T/C","second compound 0.00949 µM, first compound 0.316 µM",95.9%
same,"viability, T/C","second compound 0.00949 µM, first compound 1 µM",104%
same,"viability, T/C","second compound 0.00949 µM, first compound 3.16 µM",106%
same,"viability, T/C","second compound 0.00949 µM, first compound 10 µM",91.5%
same,"viability, T/C",[3],103%
same,"viability, T/C",[4],88.8%
same,"viability, T/C","second compound 0.03 µM, first compound 0.316 µM",94.6%
same,"viability, T/C","second compound 0.03 µM, first compound 1 µM",97.4%
same,"viability, T/C","second compound 0.03 µM, first compound 3.16 µM",96.9%
same,"viability, T/C","second compound 0.03 µM, first compound 10 µM",89.9%
same,"viability, T/C",[5],98.5%
same,"viability, T/C",[6],85.4%
same,"viability, T/C","second compound 0.0949 µM, first compound 0.316 µM",92.7%
same,"viability, T/C","second compound 0.0949 µM, first compound 1 µM",89.8%
same,"viability, T/C","second compound 0.0949 µM, first compound 3.16 µM",89.1%
same,"viability, T/C","second compound 0.0949 µM, first compound 10 µM",81.4%
same,"viability, T/C",[7],87.9%
same,"viability, T/C",[8],80.1%
same,"viability, T/C","second compound 0.3 µM, first compound 0.316 µM",83.4%
same,"viability, T/C","second compound 0.3 µM, first compound 1 µM",83.2%
same,"viability, T/C","second compound 0.3 µM, first compound 3.16 µM",76.4%
same,"viability, T/C","second compound 0.3 µM, first compound 10 µM",83.7%
same,"viability, T/C",[9],76.7%
same,"viability, T/C",[10],75.2%
same,"viability, T/C","second compound 0.949 µM, first compound 0.316 µM",74.3%
same,"viability, T/C","second compound 0.949 µM, first compound 1 µM",75.8%
same,"viability, T/C","second compound 0.949 µM, first compound 3.16 µM",75.5%
same,"viability, T/C","second compound 0.949 µM, first compound 10 µM",72%
same,"viability, T/C",[11],72.3%
same,"viability, T/C",[12],69.1%
same,"viability, T/C","second compound 3 µM, first compound 0.316 µM",70.9%
same,"viability, T/C","second compound 3 µM, first compound 1 µM",71.7%
same,"viability, T/C","second compound 3 µM, first compound 3.16 µM",70.6%
same,"viability, T/C","second compound 3 µM, first compound 10 µM",74.7%
